Laboratory results published in patent publication US8188109B2, “Benzoquinolizinium salt derivatives as anticancer agents” (Naxospharma S.r.l., priority 2009, dated 2012).
Read-outs that look alike come from different tables or passages of the source.

What was measured:
[1] = system: 2008 cell line (serous cystadenocarcinoma of the ovary); test: Cell growth assay (crystal violet dye), 2008 cells; assay type: cell-based, human; conditions: read-out: IC50 (cell growth inhibition)
Experimental: (§1) For the determination of the in vitro antitumour activities, the compounds of the invention were assayed in a panel of sensible, resistant and refractary tumour cell lines, which are only exemplary for the antitumour activity of the inventive compounds, and are not to be construed as limiting their antitumour activities only to the cell lines set forth herein. Cell lines. The 2008 cell line was established from a patient with serous cystadenocarcinoma of the ovary and the cDDP-resistant C13* subline, about 15-fold resistant to cDDP, was derived from the parent 2008 cell line by monthly exposure to cDDP, followed by chronic exposure to step-wise increases in cDDP concentration (Cancer Research 52, 1895, 1992). The cell lines were grown as monolayers in RPMI 1640 medium containing 10% heat-inactivated fetal bovine serum and 50 μg/mL gentamycin sulfate. All cell media and serum were purchased from (Lonza, Verviers, Belgium). Cultures were equilibrated with humidified 5% CO2 in air at 37° C. All studies were performed in Mycoplasma negative cells, as routinely determined with the MycoAlert Mycoplasma detection kit (Lonza, Walkersville, Md., USA).
(§2) Cell growth assay. Cell growth was determined by a modification of the crystal violet dye assay (Analytical biochemistry, 182, 16 1989). On selected days, after removal of the tissue culture medium, the cell monolayer was fixed with methanol prior to staining with 0.2% crystal violet solution in 20% methanol for at least 30 minutes. After washing several times with distilled water to remove the dye excess, the cells were let to dry. The incorporated dye was solubilized in acidic isopropanol (1N HCl : 2-propanol, 1:10). After appropriate dilution, dye was determined spectrophotometrically at 540 nm. The extracted dye was proportional to cell number. Percentage of cytotoxicity was calculated by comparing the absorbance of cultures exposed to the compounds of the invention to non-exposed (control) cultures. Percentage of cytotoxicity is here reported as the half maximal inhibitory concentration (IC50), which is a measure of the effectiveness of a compound of the invention in inhibiting cell growth by half with respect to control (100%).

[2] = system: cDDP-resistant C13* subline; test: Cell growth assay (crystal violet dye), C13* cells; assay type: cell-based, human; conditions: read-out: IC50 (cell growth inhibition)
Experimental: as §1, §2

[3] = system: HCT 116 colon carcinoma cell line; test: Cell proliferation MTT assay, HCT 116; assay type: cell-based; conditions: Homo sapiens, HCT-116, 24 h, read-out: MTT cell proliferation, percentage compared to control cells considered as 100%; for activity at 1 µM: HCT 116, compound at 1 uM, 24 h exposure; for activity at 10 µM: HCT 116, compound at 10 uM
Experimental: (§3) Cell cultures and treatments. Human tumor cells (HeLa from uterin cervix and HCT116 from colon carcinoma) were grown at 37° C. in humidified atmosphere containing 5% CO2 in D-MEM supplemented with 10% FCS, 4 mM glutamine, 2 mM Na pyruvate, 100 U/mL penicillin and 0.1 mg/mL streptomycin (all reagents were from Celbio, Pero, Italy). HeLa cells are the most widely used human tumor cell line; HCT 116 colon carcinoma cell line has proven to be extremely resistant to conventional chemotherapy. Cells were treated with the compounds of the invention at a fixed dose of 10 uM for 24 h, eventually followed by 24 of recovery in drug free medium. As a positive control of growth inhibition, cells were treated with 10 uM etoposide. Some of the inventive were also assayed at a dose of 1 uM.
(§4) Cell proliferation assays—MTT assay. Cells are seeded in 96 multiwell-plates at the density of 10^3/100 μl (except fibroblasts that are seeded at the density of 1.5×10^3/100 μl). Cells are treated 24 h later with the drug for 24 h eventually followed by 24 h of recovery in drug-free medium. At the end of the treatments, 20 μl of CellTiter 96 Non-Radioactive Cell Proliferation Assay (MTT; Promega, Milano, Italy) are added to each well. Plates are then incubated for 4 h at 37° C. in the dark and analyzed with a reader of microplates (Gio. De Vita, Roma, Italy) at 492 nm. Experiments are performed in quadruplicate and repeated three times. Data are expressed in the following Tables 2a-c as the percentage compared to control cells considered as 100%.

[4] = system: cisplatin resistant A2780 cells (A2780/CP); test: Cell growth assay (crystal violet dye), A2780/CP cells; assay type: cell-based, human; conditions: 72 hrs exposure, read-out: IC50 (cell growth inhibition)
Experimental: (§5) The human ovarian cancer cell line A2780 and a platinum-resistant subline selected in vitro by stepwise increases of cisplatin concentration in the medium were from University of Modena and Reggio Emilia. The cisplatin resistant A2780 cells were challenged weekly with 50 uM cisplatin for 1 hr. Both cell lines were maintained in RPMI 1640 medium with 10% (vol/vol) fetal calf serum, penicillin (62.9 mg/L), and streptomycin (100 mg/L) (GIBCO).
as §2

[5] = system: human ovarian cancer cell line A2780; test: Cell growth assay (crystal violet dye), A2780 cells; assay type: cell-based; conditions: 72 hrs exposure, read-out: IC50 (cell growth inhibition)
Experimental: as §5, §2

HeLa cells = test: Cell proliferation MTT assay, HeLa; assay type: cell-based; conditions: Homo sapiens, 24 h, read-out: MTT cell proliferation, percentage compared to control cells considered as 100%; for activity at 1 µM: compound at 1 uM; for activity at 10 µM: compound at 10 uM
Experimental: as §3, §4

tumour cell lines = test: In vitro antitumour activity, panel of tumour cell lines (statement in words); assay type: cell-based, human; conditions: compared with the novel compounds / prior art protoberberines
Experimental: as §1

[6] = Homo sapiens, 2008 cells, 72 hrs exposure
[7] = Homo sapiens, C13* cells, 72 hrs exposure
[8] = 24 h + 24 h recovery in drug-free medium

| IC50 [1, 6] [nM] | IC50 ([4]; Homo sapiens, A2780C/P) [nM] | IC50 ([5]; Homo sapiens) [nM] | SMILES | IC50 [2, 7] [nM] | activity at 1 µM [3] [%] | activity at 10 µM [3, 8] [%] | activity at 10 µM ([3]; 24 h) [%] | activity at 1 µM (HeLa cells; [8]) [%] | activity at 1 µM (HeLa cells) [%] | activity at 10 µM (HeLa cells; [8]) [%] | activity at 10 µM (HeLa cells) [%] | IC50 ([1]; Homo sapiens, 72 h) [nM] | IC50 ([2]; Homo sapiens, C13, 72 h) [nM] | antitumour activity (in words) (tumour cell lines) | IC50 [4] [nM] | IC50 [5] [nM] | IC50 ([1]; 2008 cells, 72 hrs exposure) [nM] | IC50 ([2]; C13* cells, 72 hrs exposure) [nM] |
| --- | --- | --- | --- | --- | --- | --- | --- | --- | --- | --- | --- | --- | --- | --- | --- | --- | --- | --- |
| 3600 | 600 | 600 | COc1ccc2c(CCCc3ccccc3)c3[n+](cc2c1OC)CCc1cc2c(cc1-3)OCO2 [NAX012, 13-(3-phenylpropyl)-9,10-dimethoxy-5,6-dihydrobenzo[g]-1,3-benzodioxolo[5,6-a]quinolizinium iodide] | 2200 | 52.1 | 34.8 | 0 | – | – | 41.3 | 72.4 | – | – | – | – | – | – | – |
| 6600 | 1000 | 1000 | COc1ccc(CCc2c3[n+](cc4c(OC)c(OC)ccc24)CCc2cc4c(cc2-3)OCO4)cc1 [NAX013, 13-[2-(4-methoxyphenyl)ethyl]-9,10-dimethoxy-5,6-dihydrobenzo[g]-1,3-benzodioxolo[5,6-a]quinolizinium iodide] | 2400 | 58.1 | 60.2 | 10 | – | – | 60.8 | 74.5 | – | – | – | – | – | – | – |
| 5800 | 1000 | 1400 | COc1ccc2c(CCc3ccc(Cl)cc3)c3[n+](cc2c1OC)CCc1cc2c(cc1-3)OCO2 [NAX014, 13-[2-(4-chlorophenyl)ethyl]-9,10-dimethoxy-5,6-dihydrobenzo[g]-1,3-benzodioxolo[5,6-a]quinolizinium iodide] | 1800 | – | 15.4 | 49.5 | 59.4 | 92.1 | 45.4 | 71.9 | – | – | – | – | – | – | – |
| 4000 | 1000 | 400 | COc1ccc2c(CCC(c3ccccc3)c3ccccc3)c3[n+](cc2c1OC)CCc1cc2c(cc1-3)OCO2 [NAX018, 13-(3,3-diphenylpropyl)-9,10-dimethoxy-5,6-dihydrobenzo[g]-1,3-benzodioxolo[5,6-a]quinolizinium iodide] | 660 | 68.2 | 13.7 | 30.6 | 45.8 | 64 | 11.3 | 40.6 | – | – | – | – | – | – | – |
| – | 2500 | 4500 | COc1ccc2c(CC(=O)n3ccc4cc(Cl)ccc43)c3[n+](cc2c1OC)CCc1cc2c(cc1-3)OCO2 [NAX030, 13-[(5-chloroindol-1-yl)carbonylmethyl]-9,10-dimethoxy-5,6-dihydrobenzo[g]-1,3-benzodioxolo[5,6-a]quinolizinium iodide] | – | – | – | – | – | – | – | – | – | – | – | – | – | – | – |

Continued, compound first:

| SMILES | IC50 [1, 6] [nM] | IC50 ([4]; Homo sapiens, A2780C/P) [nM] | IC50 ([5]; Homo sapiens) [nM] | IC50 [2, 7] [nM] | activity at 1 µM [3] [%] | activity at 10 µM [3, 8] [%] | activity at 10 µM ([3]; 24 h) [%] | activity at 1 µM (HeLa cells; [8]) [%] | activity at 1 µM (HeLa cells) [%] | activity at 10 µM (HeLa cells; [8]) [%] | activity at 10 µM (HeLa cells) [%] | IC50 ([1]; Homo sapiens, 72 h) [nM] | IC50 ([2]; Homo sapiens, C13, 72 h) [nM] | antitumour activity (in words) (tumour cell lines) | IC50 [4] [nM] | IC50 [5] [nM] | IC50 ([1]; 2008 cells, 72 hrs exposure) [nM] | IC50 ([2]; C13* cells, 72 hrs exposure) [nM] |
| --- | --- | --- | --- | --- | --- | --- | --- | --- | --- | --- | --- | --- | --- | --- | --- | --- | --- | --- |
| O=c1[nH]cc(F)c(=O)[nH]1 [5-FU, 5-fluoro-2,4(1H,3H)-pyrimidinedione, reference compound] | 10000 | – | – | 8000 | – | – | – | – | – | – | – | – | – | – | – | – | – | – |
| COc1ccc2cc3[n+](cc2c1OC)CCc1cc2c(cc1-3)OCO2 [Berberine, 9,10-dimethoxy-5,6-dihydrobenzo[g]-1,3-benzodioxolo[5,6-a]quinolizinium chloride, reference compound] | – | 2500 | 4000 | – | 201 | 93.3 | 166 | 168 | 178 | 92.9 | 121 | 10000 | 6000 | – | – | – | – | – |
| COc1ccc2c(Cc3ccccc3)c3[n+](cc2c1OC)CCc1cc2c(cc1-3)OCO2.[I-] [Comp Ex, 13-benzyl-9,10-dimethoxy-5,6-dihydrobenzo[g]-1,3-benzodioxolo[5,6-a]quinolizinium iodide, reference compound] | 9200 | 3300 | 2500 | 5000 | 119 | 22.2 | 20.4 | 93.6 | 139 | 74.5 | 98 | – | – | much lower antitumour activity | – | – | – | – |
| COc1cc([C@@H]2c3cc4c(cc3[C@@H](O[C@@H]3O[C@@H]5CO[C@@H](C)O[C@H]5[C@H](O)[C@H]3O)[C@H]3COC(=O)[C@H]23)OCO4)cc(OC)c1O [Etoposide, 4′-demethylepipodophyllotoxin 9-[4,6-O-ethylidene-beta-D-glucopyranoside], reference compound] | – | – | – | – | 139 | 96.2 | 104 | 59.5 | 94.3 | 1 | 74.8 | – | – | – | – | – | – | – |
| COc1ccc2c(CCc3c[nH]c4ccccc34)c3[n+](cc2c1OC)CCc1cc2c(cc1-3)OCO2 [NAX019, 13-[2-(indol-3-yl)ethyl]-9,10-dimethoxy-5,6-dihydrobenzo[g]-1,3-benzodioxolo[5,6-a]quinolizinium iodide] | – | – | – | – | – | 32.1 | 6 | – | – | 33.5 | 62.8 | – | – | – | – | – | – | – |
| N.N.[Cl][Pt][Cl] [cDDP, cis-diaminedichloroplatinum, reference compound] | – | – | – | – | – | – | – | – | – | – | – | – | – | – | 20000 | 2000 | 3600 | 17000 |
